Results reported in EP0655506B1 (priority 1994, dated 1995).
pIC50: −log10 of the molar value.

Experiments:
[1] = molecular target: T1, E. coli DNA polymerase I (large fragment, Klenow fragment), wild type (Escherichia coli, UniProt P00582); assay: Inhibition of DNA synthesis on synthetic Primer-Template A, competition of dATP and ddATP (Example 9); type: biochemical; settings: in the presence of 10 µM dATP, 37°C, read-out: [ddATP] for 50% inhibition
T1 construct: The large fragment of E. coli DNA polymerase I, commonly called the Klenow fragment; made in house
Experimental: (§1) In this example the competition between a dNTP and a ddNTP is assayed for use at a single site in a synthetic primer-template. This assay differs from the others in that it limits the comparison of the use of the two substrates to a single site, avoiding the complication of sequence-specific variability in discrimination. […]
(§2) Each reaction mixture contains 25 pmoles each of primer and template. […] The mixtures are incubated at 37°C for 1 min (70°C for thermophilic DNA polymerases), and the reactions are initiated by the addition of 5 µl aliquots (0.01 to 1 unit) of the DNA polymerase being analyzed diluted in 20 mM TrisHCl, pH 7.5, 10 mM 2-mercaptoethanol and 0.05% bovine serum albumin. […] The disks are then dried under a heat lamp and counted in a scintillation counter in 5 ml of fluor (Opti-Fluor O, Packard). From the amount of radioactivity on each disk, the amount […] incorporated was determined. […]
(§3) All reactions are carried out with a constant amount of the DNA polymerase being analyzed; the amount of DNA polymerase should be sufficient to replicate 50% of the total dCMP residues in the single-stranded region of the template in the 10 min incubation in the presence of 10 µM dATP and the absence of ddATP. […]

[2] = molecular target: T2, Taq DNA polymerase (unmodified DNA polymerase from Thermus aquaticus) (Thermus aquaticus, UniProt P19821); assay: as above; type: biochemical; settings: in the presence of 10 µM dATP, 70°C, read-out: [ddATP] for 50% inhibition
T2 construct: to the gene that produces the full length Taq DNA polymerase; made in house
Experimental: as §1, §2, §3

T1 sequence (P00582 324-928): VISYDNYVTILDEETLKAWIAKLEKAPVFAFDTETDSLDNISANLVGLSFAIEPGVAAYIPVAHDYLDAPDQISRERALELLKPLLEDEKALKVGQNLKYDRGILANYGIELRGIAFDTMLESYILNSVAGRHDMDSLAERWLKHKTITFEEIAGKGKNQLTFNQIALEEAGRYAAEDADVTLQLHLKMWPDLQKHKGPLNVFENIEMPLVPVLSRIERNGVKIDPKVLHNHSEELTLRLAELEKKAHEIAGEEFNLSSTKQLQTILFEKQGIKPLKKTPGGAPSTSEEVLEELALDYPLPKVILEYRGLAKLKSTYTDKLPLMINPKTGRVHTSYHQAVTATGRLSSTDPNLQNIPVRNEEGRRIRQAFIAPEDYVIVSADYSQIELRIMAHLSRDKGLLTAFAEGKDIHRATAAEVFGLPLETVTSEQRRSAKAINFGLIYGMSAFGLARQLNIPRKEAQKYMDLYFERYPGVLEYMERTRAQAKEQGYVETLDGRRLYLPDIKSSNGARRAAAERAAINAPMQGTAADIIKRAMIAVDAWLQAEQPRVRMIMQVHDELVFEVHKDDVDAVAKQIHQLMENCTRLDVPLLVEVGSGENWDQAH
T2 sequence (P19821 whole entry): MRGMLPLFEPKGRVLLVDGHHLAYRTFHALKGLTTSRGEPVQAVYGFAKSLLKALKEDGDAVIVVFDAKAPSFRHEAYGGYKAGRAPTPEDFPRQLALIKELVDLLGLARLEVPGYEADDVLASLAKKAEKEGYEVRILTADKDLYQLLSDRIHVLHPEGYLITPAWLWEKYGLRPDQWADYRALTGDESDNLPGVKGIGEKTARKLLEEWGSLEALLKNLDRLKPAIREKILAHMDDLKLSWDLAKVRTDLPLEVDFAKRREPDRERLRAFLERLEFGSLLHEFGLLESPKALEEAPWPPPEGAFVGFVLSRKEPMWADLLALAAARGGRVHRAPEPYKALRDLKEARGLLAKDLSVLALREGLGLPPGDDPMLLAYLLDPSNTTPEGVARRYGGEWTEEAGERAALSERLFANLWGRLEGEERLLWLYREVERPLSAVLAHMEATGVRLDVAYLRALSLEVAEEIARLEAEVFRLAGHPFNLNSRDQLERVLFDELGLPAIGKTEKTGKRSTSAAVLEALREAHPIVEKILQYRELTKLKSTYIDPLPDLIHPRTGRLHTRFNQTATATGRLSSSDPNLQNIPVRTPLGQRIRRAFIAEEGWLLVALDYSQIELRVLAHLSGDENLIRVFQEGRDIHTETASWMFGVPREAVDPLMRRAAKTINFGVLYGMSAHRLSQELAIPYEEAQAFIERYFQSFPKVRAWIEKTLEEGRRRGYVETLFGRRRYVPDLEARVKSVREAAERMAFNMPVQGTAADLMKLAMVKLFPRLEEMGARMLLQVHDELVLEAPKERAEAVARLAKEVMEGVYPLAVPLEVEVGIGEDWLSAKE

In the case of `Nc1ncnc2c1ncn2[C@H]1CC[C@@H](COP(=O)(O)OP(=O)(O)OP(=O)(O)O)O1` [ddATP], the pIC50 [1] was < 3.30 and the pIC50 [2] was < 3.30.
